In patent US12084460B2, “Crystalline forms of a TLR7/TLR8 inhibitor” (NOVARTIS AG, priority 2018, dated 2024):
Values after ≈ are worked out from the molar mass of the structure shown. Structures can show the parent of a compound that is named as a salt. Blank lines part the entries; values can stand above or below the compound they belong to.

What was measured:
Format in all cases: physicochemical
[1] = Hygroscopicity / behaviour under humidity (DVS); conditions: for behaviour at high humidity: above 70% RH
Source text: Crystalline form A is an anhydrous form of (S)—N-(4-((5-(1,6-dimethyl-1H-pyrazolo[3,4-b]pyridin-4-yl)-3-methyl-4,5,6,7-tetrahydro-1H-pyrazolo[4,3-c]pyridin-1-yl)methyl)bicyclo[2.2.2]octan-1-yl)morpholine-3-carboxamide that is highly crystalline consisting of thin tabular particles.
Crystalline form HA is a hydrated form of (S)—N-(4-((5-(1,6-dimethyl-1H-pyrazolo[3,4-b]pyridin-4-yl)-3-methyl-4,5,6,7-tetrahydro-1H-pyrazolo[4,3-c]pyridin-1-yl)methyl)bicyclo[2.2.2]octan-1-yl)morpholine-3-carboxamide.

[2] = Behavior under compression (physical stability); conditions: 100 mg compressed 5 minutes at 10 tons
Protocol: Behavior under compression: The physical stability of each crystalline form (Form A or Form HA) was also evaluated.
100 mg of the crystalline form was compressed for 5 minutes at 10 tons with a hydraulic press (diameter of the tablets 8 mm). The sample was then characterized by XRPD to detect any change in the solid state.

[3] = Granulation simulation / dry grinding experiment; conditions: for form change under dry grinding: XRPD and/or DSC
Protocol: Behavior under granulation simulation experiment: The physical stability of crystalline forms A and HA were also evaluated in granulation simulation experiments. In these experiments granulating solvent was added dropwise to the crystalline form A or HA until the solid is wetted sufficiently. The mixture was then vortexed between each addition at 25° C. Alternatively, dry grinding was carried out. The crystallinity of the material (post-grinding) was re-evaluated by XRPD and/or DSC.

[4] = Competitive solvent equilibration of form A and form HA; conditions: 1:1 mixture of form A and form HA suspended in solvents, 25-50° C., seven days, XRPD/DVS
Protocol: Competitive equilibrations were carried out to investigate the relative stability of form A and HA in a competitive solvent equilibration. A 1:1 mixture of form A and form HA was prepared and suspended in various solvents or mixture thereof at temperature between 25° C. and 50° C. for seven days. The resulting suspension was filtered and analyzed by XRPD/DVS.

Solubility = experiment: Solubility
Protocol: Form A is highly soluble at pH values of 4.7 and below (solubility higher than 2 mg/mL), however, at higher pH levels, formation of less soluble form HA leads to lower solubility values.

[5] = Stability under light exposure; conditions: exposure to 1200 kLux at 25° C.
[6] = Solid state stability in bulk and with excipient mixtures; conditions: bulk: 1 week 80° C., 50° C., 80° C.-75% RH, 50° C.-75% RH; excipient mixtures EM1, EM2, HGC, HMPC: 2 weeks 50° C. with or without 75% RH; HPLC and XRPD
Protocol: A stability and excipient compatibility study was performed on form A and form HA. Both forms were subject to various test conditions as described below: • Test conditions in bulk: 1 week in a tight container at 80° C., 50° C., 80° C.-75% RH or 50° C.-75% RH. • Test condition with excipient mixtures (EM) • a. 1% of form A or form HA in EM1 for 2 weeks at 50° C. • b. 1% of form A or form HA in EM2 for 2 weeks at 50° C. • c. 10% of form A or form HA in crushed hard gelatin capsule (HGC) for 2 weeks at 50° C. • d. 10% of form A or form HA in crushed Hydroxypropyl Methyl Cellulose (HMPC) for 2 weeks at 50° C. • e. 1% of form A or form HA in EM1 for 2 weeks at 50° C. and 75% RH • f. 1% of form A or form HA in EM2 for 2 weeks at 50° C. and 75% RH • g. 10% of form A or form HA in crushed HGC for 2 weeks at 50° C. and 75% RH • h. 10% of form A or form HA in crushed HMPC for 2 weeks at 50° C. and 75% RH • EM1: Excipient mixture 1: Lactose spray dried (53%), Microcrystalline Cellulose (MCC) PH102 (40%), Crospovidone XL (5%), Aerosil (0.5%), Magnesium stearate (1.5%) • EM2: Excipient mixture 2: Mannitol DC (68%), MCC PH102 (26%), Ac-Di-Sol (4%), Aerosil (0.5%), Magnesium stearate (1.5%)
The degradation products were analyzed by HPLC and the sample was analyzed by XPRD to detect any changes to the solid state.

[7] = Corrosivity assessment of salt form
Source text: The criteria for selection are toxicological considerations, crystallinity, melting point, hygroscopicity, stability in bulk, compatibility with excipients, pH of aqueous solution, solubility in water and aqueous media, morphology, handling and polymorphic behavior.

- hygroscopicity ([1]; up to 70% RH): slightly hygroscopic
- moisture uptake ([1]; up to 70% RH): 1.3%
- change of crystalline form under compression (XRPD) [2]: No change of crystalline form
- form change under dry grinding ([3]; listed as Modification A): stable
- form change upon granulation ([3]; granulation with water): partially changed
- water activity (aw) at which form A transforms into form HA [4]: ~0.25
- solubility (Solubility; pH 4.7, aqueous buffer, pH values of 4.7 and below): > 2000 µg/mL
- physical and chemical stability under light exposure [5]: good physical and chemical stability
- stability in bulk state and with excipients [6]: good stability
SMILES: Cc1cc(N2CCc3c(c(C)nn3CC34CCC(NC(=O)[C@@H]5COCCN5)(CC3)CC4)C2)c2cnn(C)c2n1 [Form A, (S)—N-(4-((5-(1,6-dimethyl-1H-pyrazolo[3,4-b]pyridin-4-yl)-3-methyl-4,5,6,7-tetrahydro-1H-pyrazolo[4,3-c]pyridin-1-yl)methyl)bicyclo[2.2.2]octan-1-yl)morpholine-3-carboxamide]
- behaviour at high humidity ([1]; listed as form A): transforms into the hydrate crystalline form HA

- hygroscopicity ([1]; humidities above 30% RH): slightly hygroscopic
- form change under dry grinding [3]: no form change
- form change upon granulation ([3]; ethanol and water as granulation solvent, 25° C., XRPD): no form change
- solubility (Solubility; aqueous buffers in bio-relevant media, aqueous buffer): ~4 µg/mL (≈ 7.51 µM)
SMILES: Cc1cc(N2CCc3c(c(C)nn3CC34CCC(NC(=O)[C@@H]5COCCN5)(CC3)CC4)C2)c2cnn(C)c2n1 [Form HA, (S)—N-(4-((5-(1,6-dimethyl-1H-pyrazolo[3,4-b]pyridin-4-yl)-3-methyl-4,5,6,7-tetrahydro-1H-pyrazolo[4,3-c]pyridin-1-yl)methyl)bicyclo[2.2.2]octan-1-yl)morpholine-3-carboxamide]
- behaviour at low humidity ([1]; below 20% RH, rehydrates to form HA at 30% RH): dehydrates to a non-characterized anhydrate form

- behaviour at high humidity [1]: deliquescent
SMILES: Cc1cc(N2CCc3c(c(C)nn3CC34CCC(NC(=O)[C@@H]5COCCN5)(CC3)CC4)C2)c2cnn(C)c2n1 [HCl salt, (S)—N-(4-((5-(1,6-dimethyl-1H-pyrazolo[3,4-b]pyridin-4-yl)-3-methyl-4,5,6,7-tetrahydro-1H-pyrazolo[4,3-c]pyridin-1-yl)methyl)bicyclo[2.2.2]octan-1-yl)morpholine-3-carboxamide]
- corrosivity [7]: potential corrosivity
